Key:
[1] = test system: 5/2 cells; assay: B-cell growth assay ([3H]-thymidine uptake), lymphoblastoid 5/2 cells in serum-free HB101 medium; type: cell-based, human
Protocol: Washed 5/2 cells (5,000/well) were incubated for 72 hours in HB101 medium with the indicated amounts of retinoids. DNA synthesis was measured by [^3 H] thymidine uptake. The measurements were done in triplicate. The SDs were <15%.
In FIGS. 4B to 4D, 5/2 cells were washed twice and seeded at a concentration of 150,000 cells/ml in HB 101 medium. Triplicate samples of 100 μl of cell suspension were removed daily and pulsed for 6 hours with [^3 H] thymidine. Means are shown. The SDs were never >20%.
P3 was purified as described in the Experimental Details section. 5/2 cells (5,000/well) were incubated for 72 hours in HB101 medium and refed with the indicated amount of retinoid daily. DNA synthesis was measured by [^3 H]-thymidine uptake. P3 is bioactive down to a concentration of 10-^8 M (FIG. 8). […] This is due either to chemical instability or to a more rapid metabolic degradation of P3 by the cells.
The human EBV-transformed B-cell line 5/2 was established from the peripheral blood of a healthy donor. The cell line was grown in RPMI 1640 supplemented with 8% fetal calf serum, L-glutamine (2 mM), and antibiotics. The cell line was tested regularly for mycoplasma infections and was consistently negative.
The assay system is a modification of the assay developed by Blazar et al. (12). […] Assays were done in 96 well microtiter plates in a final volume of 200 μl/well or in 25 cm^2 tissue culture flasks. The cells in the microtiter plates were cultured for 72 hours and cell growth was determined by labeling for the last 16 hours with 0.8 μCi/well of [^3 H]thymidine (sp. act. 6.7 Ci/mmol). Growth in the culture flasks was determined in three aliquots of 100 μl taken at 24 hours intervals and cultured in the presence of 0.8 μCi of [^3 H]thymidine for an additional 6 hour period. To determine the viable cell number, nine aliquots per time point were differentially counted in a Neubauer chamber in the presence of trypan blue.

[2] = test system: lymph node T cells; assay: Proliferation of anti-CD3 activated lymph node T cells; type: cell-based, BALB/c mouse
Source text: Growth curves of lymph node T cells depleted of antigen-presenting cells (FIG. 17A) with and without 10^-6 M retinol at 2×10^5 and 5×10^4 cells/well. (FIG. 17B) Dose-responses elicited by different retinoids in cultures of lymph node T cells depleted of antigen-presenting cells. Also shown are the growth curves of CD4^+ (FIG. 17C) and CD8^+ T lymphocytes (FIG. 17D) in the presence of either retinol, 14HRR, human serum or in their absence.
T lymphocytes, purified as described, 5×10^4 /well, were activated with immobilized anti-CD3 antibody in ITLB medium. The indicated amounts of retinoids or human serum were added at initiation of cultures. […] 14HRR was added every 12 hours. DNA synthesis was measured by a 4 hour pulse with tritiated thymidine. SDs were ≤17%.
Mature T cells were obtained from pooled intestinal, axillary, inguinal and submandibular lymph nodes of 4 to 10-week-old BALB/c mice. To fractionate cells into CD4 and CD8 subsets and at the same time remove APC, a combination of adherence and complement lysis was used as follows:
The cell suspension in a volume of 2 ml was applied to a nylon wool column (40) (0.6 g of washed nylon fibers in the barrel of a 10 ml syringe) and incubated at 37° C. for 40 min. […] The success of the enrichment procedures was monitored cytofluorimetrically using FITC-conjugated anti-CD8 and PE-conjugated anti-CD4. […]
Cells were cultured in serum-free medium, referred to as ITLB, containing RPMI 1640 supplemented with 8×10^-7 M insulin (5 μg/ml), 7×10^-8 M transferrin (5 μg/ml), 2×10^-6 M linoleic acid, 2×10^-6 M delipidated BSA (0.12 mg/ml), 2 mM L-glutamine, 1 mM sodium pyruvate and antibiotics. […] The optimal concentration for stimulation of T cells was determined for each batch of anti-CD3 mAb and Con A. The optimal range of Con A was particularly narrow in serum-free medium (0.5-0.2 μg/ml) and varied with the cell density used. […] Cellular proliferation was determined by [^3 H] thymidine uptake (0.5 uCi/well; New England Nuclear, Boston, Mass.) after the incubation times indicated for each experiment with a 4 hour labeling pulse. […]

[3] = test system: activated human thymocytes; settings: cited from earlier work

SMILES | growth of 5/2 cells [1] | minimal effective concentration ([1]; Homo sapiens, B-cell, 72 hours, refed daily, read-out: lowest bioactive concentration (bioactive down to)) [µM] | stimulation of lymph node T cells [2] | support of growth of activated human thymocytes [3]
CC(C=CC=C(C)C(O)CO)=CC=C1C(C)=CCCC1(C)C (stereo not shown) [14HRR, 14-hydroxy-4,14-retro-retinol] | active and capable of replacing retinol | 0.01 | effective over the same dose range as observed for thymocytes | 
CC1=C(/C=C/C(C)=C/C=C/C(C)=C/C(=O)O)C(C)(C)CCC1 [all-trans retinoic acid] |  |  | nearly inert | The same is true for activated human thymocytes
CC1=C(/C=C/C(C)=C/C=C/C(C)=C/CO)C(C)(C)CCC1 [retinol, all-trans retinol] | enable 5/2 cells to grow |  |  | The same is true for activated human thymocytes

Source: US5814612A, “Retinol derivatives and uses thereof” (priority 1992, dated 1998)
